# Test results as given in patent US12622902B2, “Anti-arrhythmic pharmaceutical composition and preparation method therefor” (JIANGSU KANION PHARMACEUTICAL CO., LTD., priority 2020, dated 2026).
# How the values were obtained:
# [1] = tested on: ventricular tachycardia and ventricular fibrillation; details: cited from earlier work
# [2] = Study of compositions of compound A and its salt under moisture and heat; format: physicochemical; details: condition of moisture and heat
# From the text: Accordingly, the present application provides an anti-arrhythmic pharmaceutical composition with high stability and rapid dissolution, and a preparation method thereof.
smiles,measurement,setting,value
"COc1cc2c(cc1OCc1ccccc1)C(Cc1cccc(NS(C)(=O)=O)c1)NCC2 (stereo not drawn) [compound A, 1-(3-methanesulfonamidobenzyl)-6-methoxy, 7-benzyloxy-1,2,3,4-tetrahydroisoquinoline]",effect on ventricular tachycardia and ventricular fibrillation,[1],effective
same,action potential duration,[1]; class III anti-arrhythmic drug,can prolong
same,stability of the drug in a pharmaceutical composition,[2],decomposed
